Assay results: patent publication US10858360B2, “Tricyclic gyrase inhibitors” (priority 2011, dated 2020)
Converted amounts (≈) assume the structure as drawn. Where two headings read alike, the source gives them in different places.

Experiments:
E. coli ATCC 25922 = assay: MIC, E. coli ATCC 25922; type: cell-based; details: for MIC: Escherichia coli, ATCC25922, E. coli
S. aureus ATCC 13709 = assay: MIC, S. aureus ATCC 13709 (Alamar Blue broth microdilution); type: cell-based; details: for MIC: Staphylococcus aureus, ATCC13709, S. aureus
[1] = Alamar Blue read after overnight incubation at 35° C.
[2] = E. coli, Alamar Blue read after overnight incubation at 35° C.
[3] = S. aureus, Alamar Blue read after overnight incubation at 35° C.

Structure (SMILES) | MIC (E. coli ATCC 25922; [1]) | MIC (S. aureus ATCC 13709; [1]) | also measured
CNc1cc(F)cc2c1[nH]c1nc(Oc3cnc(N4CCOCC4)nc3)nc(N3CCC4(CC4N)C3)c12 (centres unmarked) [4.214] | 2 µg/mL (≈ 3.96 µM) | ≤ 0.5 µg/mL | 
CNc1cccc2c1[nH]c1nc(Sc3cnc4cccnc4c3)nc(N3CCCCC(N)C3)c12 (centres unmarked) [1.45] | 4 µg/mL (≈ 8.5 µM) | 1 µg/mL (≈ 2.12 µM) | 
CNc1cc(C(F)(F)F)cc2c1[nH]c1nc(Oc3cnc(C)nc3)nc(N3CC4C(N)C4C3)c12 (centres unmarked) [6.10] |  |  | MIC Ec (E. coli ATCC 25922): ≤0.5 µg/mL; MIC Sa (S. aureus ATCC 13709): ≤0.5 µg/mL
CNc1cc(F)cc2c1[nH]c1nc(Oc3cnc(C(C)(C)O)nc3)nc(C3CC4(CC[C@H]4N)C3)c12 (some centres unmarked) [4.431] | ≤ 0.5 µg/mL | ≤ 0.5 µg/mL | 
CNc1cc(F)cc2c1[nH]c1nc(Oc3ccc4ncsc4c3)nc(N3C[C@H]4CC[C@@H](N)[C@H]4C3)c12 [4.320] | 1 µg/mL (≈ 2.04 µM) | ≤ 0.5 µg/mL | 
CNc1cc(F)cc2c1[nH]c1nc(Oc3cnc(C)nc3)nc(N3CC4C(C3)C4NC(=O)CN)c12 (centres unmarked) [4.078] |  |  | MIC Ec (E. coli ATCC 25922; [2]): 8 µg/mL (≈ 16.8 µM); MIC Sa (S. aureus ATCC 13709; [3]): ≤0.5 µg/mL
CNc1cc(F)cc2c1[nH]c1nc(Oc3cnc4c(c3)C(=O)N(C)C4)nc(N3CC4C[C@@H](N)C4C3)c12 (some centres unmarked) [4.359] | ≤ 0.5 µg/mL | ≤ 0.5 µg/mL | 
CNc1cccc2c1[nH]c1nc(Sc3cnc4ccc[n+]([O-])c4c3)nc(N3CC[C@H](N)C3)c12 [1.14] | 1 µg/mL (≈ 2.18 µM) | ≤ 0.5 µg/mL | 
CNc1cc(F)cc2c1[nH]c1nc(Oc3cnc4c(c3)ncn4C)nc(N3CCC(N)C3)c12 (centres unmarked) [4.225] |  |  | MIC Ec (E. coli ATCC 25922; [2]): 2 µg/mL (≈ 4.47 µM); MIC Sa (S. aureus ATCC 13709; [3]): ≤0.5 µg/mL
CNc1cc(F)cc2c1[nH]c1nc(Oc3cncnc3)nc(N3C[C@H]4C[C@@H]3C[C@H]4N)c12 [4.034] | ≤ 0.5 µg/mL | ≤ 0.5 µg/mL | 
CNc1cc(F)cc2c1[nH]c1nc(Oc3cnc(C)nc3)nc(N3CC4(CCCNC4)C3)c12 [4.149] |  |  | MIC Ec (E. coli ATCC 25922; [2]): 2 µg/mL (≈ 4.46 µM); MIC Sa (S. aureus ATCC 13709; [3]): ≤0.5 µg/mL
CNc1cccc2c1[nH]c1nc(Sc3cnc4cccnc4c3)nc(N3CCC(CO)C3)c12 (centres unmarked) [1.53] | 8 µg/mL (≈ 17.5 µM) | ≤ 0.5 µg/mL | 
CNc1cc(F)cc2c1[nH]c1nc(Oc3cncnc3)nc(N3C[C@H]4CC[C@@H](CN)[C@H]4C3)c12 [4.021] | 2 µg/mL (≈ 4.46 µM) | ≤ 0.5 µg/mL | 
CNc1cc(F)cc2c1[nH]c1nc(Oc3cnc(N4CCOCC4)nc3)nc(N3CC4C(N)C4C3)c12 (centres unmarked) [4.211] |  |  | MIC Ec (E. coli ATCC 25922; [2]): >16 µg/mL; MIC Sa (S. aureus ATCC 13709; [3]): 16 µg/mL (≈ 32.6 µM)
CNc1cc(F)c(F)c2c1[nH]c1nc(Oc3cncnc3)nc(N3CC4C(N)C4C3)c12 (centres unmarked) [6.19] |  |  | MIC Ec (E. coli ATCC 25922): >16 µg/mL; MIC Sa (S. aureus ATCC 13709): >16 µg/mL
CNc1cccc2c1[nH]c1nc(Oc3cncc(F)c3)nc(N3CCC4(CNC4)C3)c12 [3.66] | > 32 µg/mL | 8 µg/mL (≈ 19.1 µM) | 
CNc1cc(F)cc2c1[nH]c1nc(Oc3cnc(C(C)C)nc3)nc(N3CC4CC(N)C4C3)c12 (centres unmarked) [4.234] |  |  | MIC Ec (E. coli ATCC 25922; [2]): 1 µg/mL (≈ 2.16 µM); MIC Sa (S. aureus ATCC 13709; [3]): ≤0.5 µg/mL
CNc1cccc2c1[nH]c1nc(Oc3cncc(F)c3)nc(N3CC[C@@H](N)C3)c12 [3.6] | 1 µg/mL (≈ 2.54 µM) | 0.5 µg/mL (≈ 1.27 µM) | 
CNc1cc(F)cc2c1[nH]c1nc(Oc3cnc(C(N)=O)nc3)nc(N3C[C@H]4C[C@@H](N)[C@H]4C3)c12 [4.374] | 4 µg/mL (≈ 8.63 µM) | ≤ 0.5 µg/mL | 
CNc1cc(F)cc2c1[nH]c1nc(Oc3cnc(C4CC4)nc3)nc(N3CC4CCNC3C4)c12 (centres unmarked) [4.248] | ≤ 0.5 µg/mL | ≤ 0.5 µg/mL | 
CNc1cccc2c1[nH]c1nc(Sc3cnc4cccnc4c3)nc(N3CC4CNC(C4)C3)c12 (centres unmarked) [1.47] | 2 µg/mL (≈ 4.27 µM) | ≤ 0.5 µg/mL | 
CNc1cc(F)cc2c1[nH]c1nc(Oc3cnc(N)nc3)nc(N3CC4CNC4C3)c12 (centres unmarked) [4.178] | 8 µg/mL (≈ 19 µM) | ≤ 0.5 µg/mL | 
